Assay results: PMC6797236, “Bacillus subtilis PgcA moonlights as a phosphoglucosamine mutase in support of peptidoglycan synthesis” (PLoS Genetics, 2019)

Tests used:
Assay type in all cases: biochemical
[1] = molecular target: T1, PgcA (Bacillus subtilis, UniProt P18159); assay: LC-MS assay of glucose 6-phosphate formation; conditions: 5 mM MgCl2, 20 uM glucose-1,6-bisphosphate, 50 mM Tris-HCl pH 8.0; PGM reaction
T1 construct: N-terminal 6xHis tag, tag cleavage not mentioned; expressed in E. coli DH5alpha, Ni-NTA purified
T1 sequence (P18159 1-581): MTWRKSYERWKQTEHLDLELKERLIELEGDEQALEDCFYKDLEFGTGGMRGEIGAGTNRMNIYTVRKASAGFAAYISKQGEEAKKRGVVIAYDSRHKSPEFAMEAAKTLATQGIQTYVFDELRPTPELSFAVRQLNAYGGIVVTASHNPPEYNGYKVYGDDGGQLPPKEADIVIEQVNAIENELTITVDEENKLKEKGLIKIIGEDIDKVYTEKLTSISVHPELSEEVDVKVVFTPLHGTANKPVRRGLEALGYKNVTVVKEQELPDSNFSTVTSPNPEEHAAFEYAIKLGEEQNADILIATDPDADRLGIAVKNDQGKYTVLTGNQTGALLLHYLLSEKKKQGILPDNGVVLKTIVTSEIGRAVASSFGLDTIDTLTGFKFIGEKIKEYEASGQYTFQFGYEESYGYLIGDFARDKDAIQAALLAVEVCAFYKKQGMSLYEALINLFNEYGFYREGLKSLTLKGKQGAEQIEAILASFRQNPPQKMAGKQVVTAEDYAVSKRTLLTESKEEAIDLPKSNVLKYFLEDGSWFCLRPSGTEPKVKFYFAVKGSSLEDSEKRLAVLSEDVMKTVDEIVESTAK

[2] = molecular target: T2, GlmM (Bacillus subtilis, UniProt O34824); assay: LC-MS assay of glucosamine 6-phosphate formation; conditions: 5 mM MgCl2, 0.7 mM glucose-1,6-bisphosphate, 50 mM Tris-HCl pH 8.0; PNGM reaction
T2 construct: purified protein; tag and expression of GlmM not described separately
T2 sequence (O34824 1-448): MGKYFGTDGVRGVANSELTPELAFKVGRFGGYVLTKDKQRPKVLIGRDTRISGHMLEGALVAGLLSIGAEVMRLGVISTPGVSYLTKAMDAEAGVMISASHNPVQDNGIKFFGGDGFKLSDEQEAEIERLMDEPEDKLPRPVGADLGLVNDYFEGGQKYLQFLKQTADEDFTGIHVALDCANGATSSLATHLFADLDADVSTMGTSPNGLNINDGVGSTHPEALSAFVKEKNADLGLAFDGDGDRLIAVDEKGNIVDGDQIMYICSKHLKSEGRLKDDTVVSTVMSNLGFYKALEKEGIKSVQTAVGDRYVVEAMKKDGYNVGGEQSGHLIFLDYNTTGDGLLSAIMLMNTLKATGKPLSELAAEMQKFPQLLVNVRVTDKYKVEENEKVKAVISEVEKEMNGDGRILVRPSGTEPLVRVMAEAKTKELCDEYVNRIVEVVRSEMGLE

[3] = molecular target: T1, PgcA; assay: LC-MS assay of glucosamine 6-phosphate formation; conditions: 5 mM MgCl2, 20 uM glucose-1,6-bisphosphate, 50 mM Tris-HCl pH 8.0; PNGM reaction

Compound	KM [1]	KM [2]	KM [3]
O=P(O)(O)O[C@H]1O[C@H](CO)[C@@H](O)[C@H](O)[C@H]1O [Glc-1-P]	Both PgcA and PgcA G47S were equally active in the PGM reaction	–	–
N[C@H]1[C@@H](OP(=O)(O)O)O[C@H](CO)[C@@H](O)[C@@H]1O [GlcN-1-P]	–	GlmM from B. subtilis, which had an affinity for GlcN-1-P substrate	using GlcN-1-P as substrate to monitor the PNGM reaction
